Experimental data as given in ChEMBL document CHEMBL5500384, “New synergistic benzoquinone scaffolds as inhibitors of mycobacterial cytochrome bc1 complex to treat multi-drug resistant tuberculosis” (Eur J Med Chem, 2024).

How the values were obtained:
[1] = system: Mycobacterium tuberculosis; assay: Antitubercular activity against Mycobacterium tuberculosis H37Rv incubated for 5 days by microtiter plate method; type: functional; settings: 120 h, time 5 day
[2] = Hepatotoxicity in Albino mouse assessed as change in hepatic artery at 50 to 2000 mg/kg, po measured after 14 days; type: toxicity, organism-based, Liver; settings: in vivo, 336 h, dose 50-2000 mg/kg, time 14 day
[3] = Acute toxicity in Albino mouse assessed as mortality at 50 mg/kg, po after 14 days; type: organism-based; settings: in vivo, 336 h, time 14 day
[4] = Acute toxicity in Albino mouse assessed as mortality at 2000 mg/kg, po after 2 to 4 hrs; type: organism-based; settings: in vivo, time 2-4 hrs
[5] = Acute toxicity in Albino mouse assessed as change in platelet count at 50 to 2000 mg/kg, po measured after 14 days (reference value: 3.24 mm3); type: organism-based; design: unit not given here; settings: in vivo, 336 h, dose 50-2000 mg/kg, time 14 day
[6] = Cytotoxicity against african green monkey Vero cells assessed as cell viability at 3.125 ug/ml by MTT assay; type: toxicity, cell-based; settings: chlorocebus sabaeus, at 3.125 µg/mL, read-out: Activity
[7] = Pulmonary toxicity in Albino mouse assessed as change in bronchi structure at 50 to 2000 mg/kg, po measured after 14 days; type: organism-based; settings: in vivo, 336 h, dose 50-2000 mg/kg, time 14 day
[8] = Acute toxicity in Albino mouse assessed as change in eosinophils at 50 to 2000 mg/kg, po measured after 14 days (reference value: 3%); type: organism-based; settings: in vivo, 336 h, dose 50-2000 mg/kg, time 14 day
[9] = Acute toxicity in Albino mouse assessed as change in SGPT count at 50 to 2000 mg/kg, po measured after 14 days (reference value: 52 IU/L); type: organism-based; settings: in vivo, 336 h, dose 50-2000 mg/kg, time 14 day
[10] = Cytotoxicity against african green monkey Vero cells assessed as cell viability at 6.25 ug/ml by MTT assay; type: toxicity, cell-based; settings: chlorocebus sabaeus, at 6.25 µg/mL, read-out: Activity
[11] = Pulmonary toxicity in Albino mouse assessed as appearance of goblet cells at 50 to 2000 mg/kg, po measured after 14 days; type: organism-based; settings: in vivo, 336 h, dose 50-2000 mg/kg, time 14 day
[12] = Renal toxicity in Albino mouse assessed as change in proximal convoluted tubules at 50 to 2000 mg/kg, po measured after 14 days; type: organism-based; settings: in vivo, 336 h, dose 50-2000 mg/kg, time 14 day
[13] = Cytotoxicity against african green monkey Vero cells assessed as cell viability at 50 ug/ml by MTT assay; type: toxicity, cell-based; settings: chlorocebus sabaeus, at 50 µg/mL, read-out: Activity
[14] = Acute toxicity in Albino mouse assessed as change in RBC count measured per million cells at 50 to 2000 mg/kg, po measured after 14 days (reference value: 9.15 microL); type: organism-based, Erythrocyte; settings: in vivo, 336 h, dose 50-2000 mg/kg, time 14 day
[15] = Cytotoxicity against african green monkey Vero cells by MTT assay; type: toxicity, cell-based; settings: chlorocebus sabaeus
[16] = Cytotoxicity against african green monkey Vero cells assessed as cell viability at 100 ug/ml by MTT assay; type: toxicity, cell-based; settings: chlorocebus sabaeus, at 100 µg/mL, read-out: Activity
[17] = Renal toxicity in Albino mouse assessed as structural absorbability abnormalities at 50 to 2000 mg/kg, po measured after 14 days; type: organism-based; settings: in vivo, 336 h, dose 50-2000 mg/kg, time 14 day
[18] = Hepatotoxicity in Albino mouse assessed as change in portal vein at 50 to 2000 mg/kg, po measured after 14 days; type: toxicity, organism-based; settings: in vivo, 336 h, dose 50-2000 mg/kg, time 14 day
[19] = Hepatotoxicity in Albino mouse assessed as change in portal tracks at 50 to 2000 mg/kg, po measured after 14 days; type: toxicity, organism-based; settings: in vivo, 336 h, dose 50-2000 mg/kg, time 14 day
[20] = Acute toxicity in Albino mouse assessed as change in lymphocytes at 50 to 2000 mg/kg, po measured after 14 days (reference value: 21%); type: organism-based; settings: in vivo, 336 h, dose 50-2000 mg/kg, time 14 day
[21] = Pulmonary toxicity in Albino mouse assessed as change in alveoli structure at 50 to 2000 mg/kg, po measured after 14 days; type: organism-based; settings: in vivo, 336 h, dose 50-2000 mg/kg, time 14 day
[22] = Cytotoxicity against african green monkey Vero cells assessed as cell viability at 12.5 ug/ml by MTT assay; type: toxicity, cell-based; settings: chlorocebus sabaeus, at 12.5 µg/mL, read-out: Activity
[23] = Pulmonary toxicity in Albino mouse assessed as change in alveolar sacs at 50 to 2000 mg/kg, po measured after 14 days; type: organism-based; settings: in vivo, 336 h, dose 50-2000 mg/kg, time 14 day
[24] = Acute toxicity in Albino mouse assessed as change in ESR at 50 to 2000 mg/kg, po measured after 14 days (reference value: 10 millimeter); type: organism-based; settings: in vivo, 336 h, dose 50-2000 mg/kg, time 14 day
[25] = Acute toxicity in Albino mouse assessed as change in LDH level at 50 to 2000 mg/kg, po measured after 14 days (reference value: 1052 IU/L); type: organism-based; settings: in vivo, 336 h, dose 50-2000 mg/kg, time 14 day
[26] = Acute toxicity in Albino mouse assessed as change in serum creatine level at 50 to 2000 mg/kg, po measured after 14 days (reference value: 0.9 mg/dl); type: organism-based; settings: in vivo, 336 h, dose 50-2000 mg/kg, time 14 day
[27] = Renal toxicity in Albino mouse assessed as change in renal tubules at 50 to 2000 mg/kg, po measured after 14 days; type: organism-based; settings: in vivo, 336 h, dose 50-2000 mg/kg, time 14 day
[28] = Acute toxicity in Albino mouse assessed as change in hemoglobin level at 50 to 2000 mg/kg, po measured after 14 days (reference value: 12.8 g/dl); type: organism-based; settings: in vivo, 336 h, dose 50-2000 mg/kg, time 14 day
[29] = Acute toxicity in Albino mouse assessed as change in total leucocyte count at 50 to 2000 mg/kg, po measured after 14 days (reference value: 7400 mm3); type: organism-based; settings: in vivo, 336 h, dose 50-2000 mg/kg, time 14 day
[30] = Acute toxicity in po dosed Albino mouse assessed as mortality after 14 days; type: organism-based; settings: in vivo, time 14 day
[31] = Renal toxicity in Albino mouse assessed as change in tubular capillaries at 50 to 2000 mg/kg, po measured after 14 days; type: organism-based; settings: in vivo, 336 h, dose 50-2000 mg/kg, time 14 day
[32] = Acute toxicity in Albino mouse assessed as change in serum urea level at 50 to 2000 mg/kg, po measured after 14 days (reference value: 46 mg/dl); type: organism-based; settings: in vivo, 336 h, dose 50-2000 mg/kg, time 14 day
[33] = Acute toxicity in Albino mouse assessed as change in ALP level at 50 to 2000 mg/kg, po measured after 14 days (reference value: 28 IU/L); type: organism-based; settings: in vivo, 336 h, dose 50-2000 mg/kg, time 14 day
[34] = Renal toxicity in Albino mouse assessed as change in renal corpuscles at 50 to 2000 mg/kg, po measured after 14 days; type: organism-based; settings: in vivo, 336 h, dose 50-2000 mg/kg, time 14 day
[35] = Renal toxicity in Albino mouse assessed as change in distal convoluted tubules at 50 to 2000 mg/kg, po measured after 14 days; type: organism-based; settings: in vivo, 336 h, dose 50-2000 mg/kg, time 14 day
[36] = Acute toxicity in Albino mouse assessed as change in monocytes at 50 to 2000 mg/kg, po measured after 14 days (reference value: 1%); type: organism-based; settings: in vivo, 336 h, dose 50-2000 mg/kg, time 14 day
[37] = Cytotoxicity against african green monkey Vero cells assessed as cell viability at 25 ug/ml by MTT assay; type: toxicity, cell-based; settings: chlorocebus sabaeus, at 25 µg/mL, read-out: Activity
[38] = Renal toxicity in Albino mouse assessed as extravasation of RBC at 50 to 2000 mg/kg, po measured after 14 days; type: organism-based, Erythrocyte; settings: in vivo, 336 h, dose 50-2000 mg/kg, time 14 day
[39] = Pulmonary toxicity in Albino mouse assessed as appearance of cilia at 50 to 2000 mg/kg, po measured after 14 days; type: organism-based; settings: in vivo, 336 h, dose 50-2000 mg/kg, time 14 day
[40] = Renal toxicity in Albino mouse assessed as change in Bowman's capsule at 50 to 2000 mg/kg, po measured after 14 days; type: organism-based; settings: in vivo, 336 h, dose 50-2000 mg/kg, time 14 day
[41] = Hepatotoxicity in Albino mouse assessed as change in central vein at 50 to 2000 mg/kg, po measured after 14 days; type: toxicity, organism-based; settings: in vivo, 336 h, dose 50-2000 mg/kg, time 14 day
[42] = Acute toxicity in Albino mouse assessed as mortality at 300 mg/kg, po after 5 to 8 hrs; type: organism-based; settings: in vivo, time 5-8 hrs
[43] = Acute toxicity in Albino mouse assessed as change in neutrophils at 50 to 2000 mg/kg, po measured after 14 days (reference value: 75%); type: organism-based; settings: in vivo, 336 h, dose 50-2000 mg/kg, time 14 day
[44] = Pulmonary toxicity in Albino mouse assessed as change in squamous pneumocytes at 50 to 2000 mg/kg, po measured after 14 days; type: organism-based; settings: in vivo, 336 h, dose 50-2000 mg/kg, time 14 day
[45] = Acute toxicity in Albino mouse assessed as change in SGOT count at 50 to 2000 mg/kg, po measured after 14 days (reference value: 42 IU/L); type: organism-based; settings: in vivo, 336 h, dose 50-2000 mg/kg, time 14 day
[46] = Hepatotoxicity in Albino mouse assessed as change in bile duct at 50 to 2000 mg/kg, po measured after 14 days; type: toxicity, organism-based, Liver; settings: in vivo, 336 h, dose 50-2000 mg/kg, time 14 day

In the case of `O=C1C(Cl)=C(/N=C/c2ccc(Cl)cc2)C(=O)c2ccccc21`, the MIC [1] is reported as 6.25 µg/mL.
With `O=C1C(Cl)=C(N2C(=O)C(Cl)C2c2ccc([N+](=O)[O-])cc2)C(=O)c2ccccc21` (stereo not drawn) the Activity [2] was “Non-Toxic”, the Activity [3] was “Non-Toxic” and the Activity [4] was “Toxic”. The Activity [5] was 5.95, the viability at 3.125 ug/ml [6] was 100% and the Activity [7] was “Non-Toxic”. The Activity [8] was 4%, the Activity [9] was 43.21 IU/L and the viability at 6.25 ug/ml [10] was 100%. For the same compound, the Activity [11] was “Non-Toxic”, the Activity [12] was “Non-Toxic” and the viability at 50 ug/ml [13] was 21.4%. For the same compound, the Activity [14] was 9.85, the Activity [15] was “Dose-Dependent Effect” and the viability at 100 ug/ml [16] was 9.6%. The Activity [17] was “Non-Toxic”, the Activity [18] was “Non-Toxic” and the Activity [19] was “Non-Toxic”. For the same compound, the Activity [20] was 39%, the Activity [21] was “Non-Toxic” and the viability at 12.5 ug/ml [22] was 78%. For the same compound, the Activity [23] was “Non-Toxic”, the Activity [24] was 15 millimeter/hr and the Activity [25] was 505 IU/L. For the same compound, the Activity [26] was 0.33 mg/dL, the Activity [27] was “Non-Toxic” and the Activity [28] was 13.2 g/dL. For the same compound, the Activity [29] was 8800 mm3, the LD50 at 336 h [30] was 50 mg/kg and the Activity [31] was “Non-Toxic”. It also gave an MIC [1] of 30 µM, an Activity [32] of 37.75 mg/dL and an Activity [33] of 429.54 IU/L. The Activity [34] was “Non-Toxic”, the Activity [35] was “Non-Toxic” and the Activity [36] was 1%. For the same compound, the viability at 25 ug/ml [37] was 46.2%, the Activity [38] was “Non-Toxic” and the Activity [39] was “Non-Toxic”. For the same compound, the Activity [40] was “Non-Toxic”, the Activity [41] was “Non-Toxic” and the Activity [42] was “Toxic”. For the same compound, the Activity [43] was 72%, the Activity [44] was “Non-Toxic” and the Activity [45] was 168.42 IU/L. For the same compound, the Activity [46] was “Non-Toxic”.
Work on `O=C1C(Cl)=C(N2C(=O)C(Cl)C2c2ccccc2)C(=O)c2ccccc21` (stereo not drawn) yielded an MIC [1] of 6.25 µg/mL.
